These results are taken from article PMC12396559 (Virus Research, 2025).

For data set [1], the system named is VeroE6 cells.
Data set [2] concerns MPXV^Liberia (Clade IIa). The experiment in a line: microbe, parasite or virus in culture. It counts as cell-based. The conditions noted are these: Monkeypox virus, Vero C1008, 120 h, read-out: EC50 against MPXV^Liberia.
In data set [3] the test system is HeLa cells. The conditions noted are these: for concentration at which the agent showed cytotoxicity, reducing the number of cells: human.
Data set [4] deals with MPXV^Zr-599 (Clade I). The experiment in a line: microbe, parasite or virus in culture. The conditions noted are these: Monkeypox virus, Vero C1008, 120 h, read-out: EC50 against MPXV^Zr-599. It counts as cell-based.
Data set [5] deals with VeroE6 cells. The source holds these as a separate data set.
Data set [6] deals with MPXV^SPL2A7 (Clade IIb). The experiment in a line: microbe, parasite or virus in culture. It counts as cell-based. The conditions noted are these: Monkeypox virus, Vero C1008, 120 h, read-out: EC50 against MPXV^SPL2A7.
Data set [7] has as its system Huh7 cells. The conditions noted are these: for concentration at which the agent showed cytotoxicity, reducing the number of cells: human.
A short description of data set [8]: in vitro. The conditions noted are these: human.
Data set [9] is described as follows: in vitro. The conditions noted are these: human. This is another data set of the same source.
The subject of data set [10] is clade II mpox. The conditions noted are these: human, in vivo; cited from earlier work.
For data set [11], the system named is clade I mpox. The conditions noted are these: human, in vivo; cited from earlier work.
Data set [12] in a line: in vitro. The conditions noted are these: African green monkey.
Data set [13] relates to MPXV^SPL2A7.

Each structure is given as a SMILES string.

As usually defined, the EC50 is the concentration giving half of the maximal effect. For the molecule `CCCCCCCCCCCCCCCCOCCCOP(=O)(O)CO[C@H](CO)Cn1ccc(N)nc1=O` [Brincidofovir, brincidofovir], the “cell number on day 5 subtracted with cell number on Day 0” value in data set [1] is “below zero”. Moreover, the EC50 in data set [2] was 2010 ± 850 nM; in [4], 2130 ± 950 nM; in data set [6], 2030 ± 320 nM. Further, the “concentration at which the agent showed cytotoxicity, reducing the number of cells” value in data set [3] and in [7] was 10 to 100 µM in each case. The “amount of F-actin (images)” value in [5] is “markedly reduced”. Besides, the “protein production (F-actin quantification), in words” value (from here on “protein production … in words”) in data set [5] is “virtually totally blocked”.

`Nc1ccn(C[C@@H](CO)OCP(=O)(O)O)c(=O)n1` [Cidofovir, cidofovir]: the CC50 in data set [8] and in data set [9] was above 100000 nM each time. Also, in [1], the “cell number on day 5 subtracted with cell number on Day 0” value is “below zero”. The EC50 amounted to 15200 ± 3020 nM in [2], 17300 ± 5030 nM in data set [4] and 12200 ± 1190 nM in [6]. Further, the “concentration at which the agent showed cytotoxicity, reducing the number of cells” value in [3] and in data set [7] was 100 µM in each case. In data set [5], the “protein production … in words” value is given as “virtually totally blocked”.

In the case of `Nc1ccn([C@@H]2O[C@H](CO)[C@@H](O)C2(F)F)c(=O)n1` [Gemcitabine, gemcitabine], the “number of cells (DAPI)” value in data set [1] is on record as “significant reduction”. Further, the EC50 in [2] was found to be 10 ± 10 nM; in data set [4] it was 20 ± 20 nM; in [6] it was 20 ± 20 nM. Further, the “amount of F-actin (images)” value in [5] is “greatly reduced”. Besides, the “protein production … in words” value in [5] is listed as “totally blocked”.

Regarding `O=C(NN1C(=O)[C@@H]2[C@@H]3C=C[C@@H]([C@H]4C[C@@H]34)[C@@H]2C1=O)c1ccc(C(F)(F)F)cc1` [Tecovirimat, tecovirimat], the CC50 in data set [8], in data set [9] and in [12] was above 100000 nM in each case. Further, the clinical efficacy entry in data set [10] is “no significant efficacy”. For the same molecule, the EC50 in data set [2] is 4 ± 2 nM; in data set [4], 5 ± 1 nM; in data set [6] it was 1 ± 2 nM. Moreover, the “cytostaticity and/or cytotoxicity (in words)” value in data set [3] and in data set [7] was “without cytostaticity and/or cytotoxicity” in each case. Besides, the “duration of mpox lesions” value in data set [11] is “failed to shorten the duration of mpox lesions”. In addition, the “suppression of protein production (F-actin quantification)” value in [5] is recorded as “about 50%”. The “concentration at which production of virally-encoded proteins was blocked (and above)” value in [13] was at least 0.01 µM. In addition, the “number of the cells (nuclei stained with DAPI)” value in data set [13] is listed as “no significant reduction”.

Consider `O=c1[nH]c(=O)n([C@H]2C[C@H](O)[C@@H](CO)O2)cc1C(F)(F)F` [Trifluridine, trifluridine], for which the values for the EC50 in data set [2], in data set [4] and in data set [6] were 3480 ± 1820 nM, 3710 ± 1450 nM and 6170 ± 1260 nM, respectively.
